From the OligoGym collection
Where “and” joins values, the source holds several entries; their conditions need not be identical. Equal values may be shown once. After the bases stand the sugars from the 5' end (letter, count) and the backbone: PS all phosphorothioate, else s phosphorothioate and o phosphodiester by linkage. Methylation of C is not given here. e = 2'-O-(2-methoxyethyl) (MOE); k = constrained ethyl (cEt); d = 2'-deoxy (DNA)

Molecular target: IRF4
Conditions: ASO

Row | Sequence | target mRNA inhibition (MM.1R, 1 µM) | target mRNA inhibition (SK-MEL-28, 4 µM) | other results
1 | CTAGACAGAGAGTCCG (sugars k3 d10 k3, PS) | 5% | – | –
2 | CTAGATTGTAGGACAG (sugars k3 d10 k3, PS) | – | 48% | –
3 | CTAGGTTTCAGTTGTA (sugars k3 d10 k3, PS) | – | 54% | –
4 | CTAGTCGCGCAAGTCT (sugars k3 d10 k3, PS) | -4% | – | –
5 | CTAGTTTAAGGGTTAC (sugars k3 d10 k3, PS) | – | 27% | –
6 | CTATAGTGTTCCAGGA (sugars e1 k2 d9 k2 e2, PS) | 8% | – | –
7 | CTATAGTGTTCCAGGA (sugars k2 d9 e3 k2, PS) | 34% | – | –
8 | CTATAGTGTTCCAGGA (sugars k3 d10 k3, PS) | – | 66% | –
9 | CTATAGTGTTCCAGGA (sugars kddddddddddkekek, PS) | 34% | – | –
10 | CTATAGTGTTCCAGGA (sugars kkddddddddddkeke, PS) | 36% | – | –
11 | CTATAGTGTTCCAGGA (sugars kkkdddddddddkeke, PS) | 22% | – | –
12 | CTATCAGGATCTCAAG (sugars k3 d10 k3, PS) | – | 9% | –
13 | CTATGCTGAACCCCAC (sugars k3 d10 k3, PS) | – | 1% | –
14 | CTCAATAATCTCCCAG (sugars k3 d10 k3, PS) | – | 53% | –
15 | CTCACTATTAAACAGC (sugars k3 d10 k3, PS) | – | 24% | –
16 | CTCCACAGCAAGGCCT (sugars k3 d10 k3, PS) | – | 51% | –
17 | CTCCACGCGCGGAGGA (sugars k3 d10 k3, PS) | – | -1% | –
18 | CTCCACTACCATATTG (sugars k3 d10 k3, PS) | – | 1% | –
19 | CTCCACTGTTAAAGCA (sugars k3 d10 k3, PS) | – | 52% | –
20 | CTCCAGCTTCGGTCGA (sugars k3 d10 k3, PS) | 9% | – | –
21 | CTCCGGAGTCAGTGCT (sugars k3 d10 k3, PS) | 1% | – | –
22 | CTCCTATGCTGAACCC (sugars k3 d10 k3, PS) | 9% | – | –
23 | CTCCTTTTTTGGCTCC (sugars k3 d10 k3, PS) | – | 19% | –
24 | CTCTAGACAGAGGCCC (sugars k3 d10 k3, PS) | – | 20% | –
25 | CTCTAGTCAGTGTCAA (sugars k3 d10 k3, PS) | – | 59% | –
26 | CTCTATAGTGTTCCAG (sugars e1 k2 d9 k2 e2, PS) | 59% | – | target mRNA inhibition (MM.1R, 0.074 µM): 20%; target mRNA inhibition (MM.1R, 0.222 µM): 37%; target mRNA inhibition (MM.1R, 0.666 µM): 53%; target mRNA inhibition (MM.1R, 2 µM): 75%

Row | Sequence | target mRNA inhibition (MM.1R, 1 µM) | target mRNA inhibition (SK-MEL-28, 4 µM) | other results
27 | CTCTATAGTGTTCCAG (sugars k2 d9 e3 k2, PS) | 48% | – | –
28 | CTCTATAGTGTTCCAG (sugars kddddddddddkekek, PS) | 24% | – | –
29 | CTCTATAGTGTTCCAG (sugars kkdddddddddekeke, PS) | 43% | – | –
30 | CTCTCCAGGTGGCTCA (sugars k3 d10 k3, PS) | – | 13% | –
31 | CTCTCCAGGTGGCTCA (sugars k4 d8 k4, PS) | – | 12% | –
32 | CTCTTGTGAGGCAAAG (sugars k3 d10 k3, PS) | – | 48% | –
33 | CTGAAGACAATGTTGT (sugars k3 d10 k3, PS) | – | 55% | –
34 | CTGAATTGTTACTAAA (sugars k3 d10 k3, PS) | – | 21% | –
35 | CTGACAAGAACTGCTG (sugars k3 d10 k3, PS) | – | 21% | –
36 | CTGACTTTAATATTAG (sugars k3 d10 k3, PS) | – | 56% | –
37 | CTGAGAGCCGAGGCCT (sugars k3 d10 k3, PS) | – | -17% | –
38 | CTGAGAGTAAACTTGG (sugars k3 d10 k3, PS) | -1% | – | –
39 | CTGAGTTGTACAGGAC (sugars k3 d10 k3, PS) | 55% and 52% | – | target mRNA inhibition (MM.1R, 0.0625 µM): 4%; target mRNA inhibition (MM.1R, 0.25 µM): 22%; target mRNA inhibition (MM.1R, 4 µM): 81%
40 | CTGATGTGTTCTGGTA (sugars k3 d10 k3, PS) | 45% and 53% | – | target mRNA inhibition (MM.1R, 0.0625 µM): 14% and 36%; target mRNA inhibition (MM.1R, 0.25 µM): 27% and 41%; target mRNA inhibition (MM.1R, 4 µM): 69% and 70%
41 | CTGCAAACGACAAGTG (sugars k3 d10 k3, PS) | -18% | – | –
42 | CTGCAGAACAGACGCG (sugars k3 d10 k3, PS) | – | 11% | –
43 | CTGCAGTTCACGAAAC (sugars k3 d10 k3, PS) | – | 38% | –
44 | CTGCATGAGGGTGACA (sugars k3 d10 k3, PS) | – | 19% | –
45 | CTGCTTGAGGTTTTCC (sugars k2 d9 e3 k2, PS) | 31% | – | –
46 | CTGCTTGAGGTTTTCC (sugars k3 d10 k3, PS) | – | 74% | –
47 | CTGCTTGAGGTTTTCC (sugars kdddddddddkekeke, PS) | 20% | – | –
48 | CTGCTTGAGGTTTTCC (sugars kkkdddddddddkeke, PS) | 50% | – | –
49 | CTGGACAGCCAAACAA (sugars k3 d10 k3, PS) | – | 21% | –
50 | CTGGAGAGAACTCATG (sugars k3 d10 k3, PS) | – | 38% | –
51 | CTGGATTGATGTGATA (sugars k3 d10 k3, PS) | – | 43% | –
52 | CTGGCACCAAAAGTAC (sugars k3 d10 k3, PS) | – | 18% | –

Row | Sequence | target mRNA inhibition (MM.1R, 1 µM) | target mRNA inhibition (SK-MEL-28, 4 µM) | other results
53 | CTGGCATTGAGACGGG (sugars k3 d10 k3, PS) | – | 61% | –
54 | CTGGGTTTTCTGTAGG (sugars k3 d10 k3, PS) | – | 48% | –
55 | CTGGTAACTGTATGGA (sugars k3 d10 k3, PS) | 17% | – | –
56 | CTGGTTCGCGCTCCGG (sugars k3 d10 k3, PS) | – | 7% | –
57 | CTGTACACTTTGTACG (sugars k3 d10 k3, PS) | – | 34% | –
58 | CTGTAGGGCGACTAAC (sugars k3 d10 k3, PS) | – | 49% | –
59 | CTGTTAAGTCCCATCT (sugars k3 d10 k3, PS) | – | 54% | –
60 | CTGTTACCGATGCTTC (sugars kdddddddddkekeke, PS) | 2% and 24% | – | –
61 | CTTAATTCTGGGTTAA (sugars k3 d10 k3, PS) | – | 53% | –
62 | CTTACTAGGTGCTTGT (sugars k3 d10 k3, PS) | – | 38% | –
63 | CTTATTATTTATGAGC (sugars k3 d10 k3, PS) | – | 37% | –
64 | CTTCAACAGCACTGTC (sugars k3 d10 k3, PS) | – | 56% | –
65 | CTTCACTGTTAGCTAC (sugars k3 d10 k3, PS) | – | 51% | –
66 | CTTCAGCAAAGAGGGT (sugars k3 d10 k3, PS) | – | 59% | –
67 | CTTCCAAGACAGCTTC (sugars k3 d10 k3, PS) | – | 63% | –
68 | CTTCCCTGAGAAATGG (sugars k3 d10 k3, PS) | – | 50% | target mRNA inhibition (MM.1R, 0.074 µM): 6%; target mRNA inhibition (MM.1R, 0.222 µM): 2%; target mRNA inhibition (MM.1R, 0.666 µM): 1%; target mRNA inhibition (MM.1R, 2 µM): 4%; target mRNA inhibition (SK-MEL-28, 0.185 µM): 16%; target mRNA inhibition (SK-MEL-28, 5 µM): 60%; target mRNA inhibition (SK-MEL-28, 15 µM): 85%
69 | CTTGAAAAGCCAATGC (sugars k3 d10 k3, PS) | – | 58% | –
70 | CTTGAAGAGCGCGGCG (sugars k3 d10 k3, PS) | – | 21% | –
71 | CTTGAGGTTTTCCTAA (sugars k3 d10 k3, PS) | – | 40% | –
72 | CTTGATAAAGGCTGAA (sugars kddddddddddkekek, PS) | 17% | – | –
73 | CTTGATAAAGGCTGAA (sugars kdddddddddkekeke, PS) | 5% | – | –
74 | CTTGGTTCTCTATAGT (sugars k3 d10 k3, PS) | 27% | – | –
75 | CTTTAACAAGTCCTCA (sugars k3 d10 k3, PS) | – | 52% | –
76 | CTTTTACCCACCAAAG (sugars k3 d10 k3, PS) | – | 18% | –
77 | CTTTTTAGTTCATACC (sugars k3 d10 k3, PS) | – | 37% | –
78 | GAAAAGCAGCGAAAAG (sugars k3 d10 k3, PS) | – | 2% | –

Row | Sequence | target mRNA inhibition (MM.1R, 1 µM) | target mRNA inhibition (SK-MEL-28, 4 µM) | other results
79 | GAAAGAATGGCGCATA (sugars k3 d10 k3, PS) | – | 49% | –
80 | GAAAGATTCAGCCTCT (sugars k3 d10 k3, PS) | – | 45% | –
81 | GAACACCATGCCCAAC (sugars k3 d10 k3, PS) | – | 7% | –
82 | GAACACTTTGAGGTGA (sugars k3 d10 k3, PS) | – | 14% | –
83 | GAACAGTAACTTGACT (sugars k3 d10 k3, PS) | – | 4% | –
84 | GAACGGAAGTTTACAC (sugars k3 d10 k3, PS) | – | 67% | –
85 | GAAGAAGGCACCTTCG (sugars k3 d10 k3, PS) | – | 25% | –
86 | GAAGCACTGGCATCGA (sugars k3 d10 k3, PS) | – | 44% | –
87 | GAAGCATTTTATCATC (sugars kddddddddddkekek, PS) | -12% | – | –
88 | GAAGGATGGGACCGCC (sugars k3 d10 k3, PS) | – | 41% | –
89 | GAAGTACGAGCACATG (sugars k3 d10 k3, PS) | 18% | – | –
90 | GAAGTTTACACTGGAT (sugars kdddddddddkekeke, PS) | 11% | – | –
91 | GAAGTTTACACTGGAT (sugars kkddddddddddkeke, PS) | 46% | – | –
92 | GAAGTTTACACTGGAT (sugars kkdddddddddkdkdk, PS) | 23% | – | –
93 | GAATAAACACCCCTTC (sugars k3 d10 k3, PS) | – | 44% | –
94 | GAATGAGGAAGCCGTT (sugars k3 d10 k3, PS) | – | 39% | –
95 | GACACATTTTCTGGGT (sugars k3 d10 k3, PS) | – | 53% and 64% | –
96 | GACACTTTTAGAGAGG (sugars k3 d10 k3, PS) | – | 87% and 78% | –
97 | GACAGATGACATGCTT (sugars k3 d10 k3, PS) | – | 9% | –
98 | GACAGCCGAAGCATTT (sugars k3 d10 k3, PS) | 6% | – | –
99 | GACAGTGACTTGCATC (sugars kdddddddddkekeke, PS) | 0% | – | –
100 | GACAGTGACTTGCATC (sugars kkddddddddddkeke, PS) | 25% | – | –
101 | GACAGTGACTTGCATC (sugars kkdddddddddkdkdk, PS) | -7% | – | –
102 | GACCACAGTGAAGTCG (sugars k3 d10 k3, PS) | – | 14% | –
